pIC50: −log10 of the molar value. Some results are limits rather than exact numbers.

Data on 2 compounds can be found in patent US6906046B2 (Celltech R & D Inc., priority 2000, dated 2005).

One test has as its system NFκB. The experiment in a line: NFκB luciferase reporter assay in TNF-α stimulated A549 cells (E-selectin promoter). Type of test: cell-based. As to conditions: Homo sapiens; A549 cells with NFκB luciferase reporter, TNF-α at its EC50, 5 hours; % inhibition or IC50 in μM; read-out: NFkB inh. As to the method:
A549 cells were stably transfected with an E-selectin promoter containing three NFκB binding sites driving luciferase expression. For the assay, 5×10^4 cells were incubated in 96 well round bottom plates overnight in 100 μL of 10% FBS/RPMI medium at 37° C. in a 5% CO2 atmosphere. The following morning the medium was removed and 90 μL of a 1% DMSO solution of test compound solution was added and the plates incubated for 1 hour. 10 μL of TNF-α was added at its EC50 (normally 6 ng/mL FAC) to each well and the plate incubated for 5 hours. 100 μL of luciferase buffer was added, and after 10 minutes luminescence was read on a Wallac Victor 1420 Multilabel Counter. The data obtained from the Wallac Victor was converted into % inhibition data or IC50 measured in μM.

The target in the next test is T1, CXCR2 (Homo sapiens, UniProt P25025).
T1 construct: host or cells: CHO cells
T1 sequence (P25025 1-360): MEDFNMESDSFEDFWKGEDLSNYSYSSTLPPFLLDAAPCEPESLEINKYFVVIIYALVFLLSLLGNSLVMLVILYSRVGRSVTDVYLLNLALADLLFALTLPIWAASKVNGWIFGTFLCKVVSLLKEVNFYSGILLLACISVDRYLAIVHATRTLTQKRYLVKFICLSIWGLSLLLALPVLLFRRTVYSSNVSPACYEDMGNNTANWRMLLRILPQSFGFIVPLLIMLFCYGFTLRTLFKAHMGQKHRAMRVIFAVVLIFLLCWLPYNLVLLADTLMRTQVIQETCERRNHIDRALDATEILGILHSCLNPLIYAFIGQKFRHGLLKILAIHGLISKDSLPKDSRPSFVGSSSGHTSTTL
Description: CXCR2 radioligand binding assay with 125I labeled IL-8. As to conditions: human recombinant CHO cells. An excerpt:
(§1) This assay is a radioligand binding assay in human recombinant CHO cells with ^125I labeled IL-8 as the ligand. The assay procedure is described in Ahuja, S. K.; Murphy, P. M;.

The next test concerns A549 cells. The experiment in a line: Inhibition of TNF-α induced apoptosis in A549 cells (crystal violet). Type of test: cell-based. As to conditions: Homo sapiens; A549 cells, actinomycin-D + TNF-α at its EC50, 18 hours; percent inhibition at 20 μM or IC50 in μM; read-out: Apopt. Inh. How it is done:
The protocol used for determining inhibition of apoptosis in A549 cells was adopted from a system previously described (K. Last-Barney et al., J. of Immunology 141:527-530, 1988). Briefly, 10^5 cells in 200 μL 10% FBS/RPMI antibiotic containing culture medium were plated into 96 well round bottom culture plates and allowed to adhere for 6 hours at 37° C. in a 5% CO2 atmosphere. The media was removed and 100 μL of RPMI+1 μg/mL actinomycin-D was added to each well, followed by 90 μL of test compound solution in 1% DMSO. This was incubated for 1 hour 10 AL TNF-α was added at its EC50 (normally 1 ng/mL FAC) and the plates incubated for 18 hours. The media was aspirated from the plates and 100 μL of 0.5% crystal violet in 20% methanol was added. After 10 minutes the plates were rinsed with water to remove excess stain, air dried, and read on a Spectramax at a wavelength of 590 nm. The data obtained from the Spectramax was converted into percent inhibition data at a concentration of 20 μM or IC50 measured in μM.

The target of a further test is T2, CXCR1 (Homo sapiens, UniProt P25024).
T2 construct: host or cells: CHO cells
T2 sequence (P25024 1-350): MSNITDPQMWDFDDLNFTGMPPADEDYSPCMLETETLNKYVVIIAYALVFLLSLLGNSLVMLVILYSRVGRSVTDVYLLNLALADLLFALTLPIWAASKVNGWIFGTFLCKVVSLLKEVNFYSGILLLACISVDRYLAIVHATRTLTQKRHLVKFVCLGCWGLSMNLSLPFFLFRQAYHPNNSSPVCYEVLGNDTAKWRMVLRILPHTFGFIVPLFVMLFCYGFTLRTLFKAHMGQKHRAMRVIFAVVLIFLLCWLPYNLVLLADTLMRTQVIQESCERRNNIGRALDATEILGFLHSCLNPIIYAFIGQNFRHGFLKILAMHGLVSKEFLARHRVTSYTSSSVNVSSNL
Description: CXCR1 radioligand binding assay with 125I labeled IL-8. The settings on record: human recombinant CHO cells.
Excerpt: as §1

Turning to `CCCOC(=O)C1C(C(=O)OCC[Si](C)(C)C)C2C/C(=N\Nc3ccccc3)[C@H]1c1cc(O)ccc12` (some centres unmarked) [Example 111], the IC50 is 10 to 50 µM in the test on NFκB and less than 10 µM with A549 cells. Also, the pIC50 at CXCR2 (percent inhibition or IC50, read-out: CXCR2 2 inh.) is greater than 5.00; on CXCR1 (percent inhibition or IC50, read-out: CXCR1 inh.) it was greater than 5.00.
For the compound `CCCOC(=O)C1C(C(=O)OCC[Si](C)(C)C)C2C/C(=N\Oc3ccccc3)[C@H]1c1cc(O)ccc12` (some centres unmarked) [Example 116], the IC50 in the test with NFκB is 10 to 50 µM; with A549 cells, less than 10 µM. For the same compound, the “CXCR2 2 inh.” value on CXCR2 (percent inhibition or IC50) is “* (refers to percent inhibition from 10-36%)”. Besides, the CXCR1 inh. entry on CXCR1 (percent inhibition or IC50) is listed as “* (refers to percent inhibition from 10-36%)”.
